Measured values from US20250101028A1, “HETEROCYCLIC COMPOUNDS, COMPOSITIONS THEREOF, AND METHODS OF TREATMENT THEREWITH” (BeiGene, Ltd., priority 2022, published 2025).

Legend:
[1] = tested on: pERK1/2(THR202/TYR204) level, SW620 cell line; assay: KRAS G12V pERK assay (HTRF); type: cell-based; details: Homo sapiens, SW-620; SW620 cells, 2 hrs compound treatment
Experimental: SW620 cell line was used in this study. Cells were maintained in RPMI 1640 supplemented with 10% fetal bovine serum (Thermo Fisher), 50 units/mL penicillin and streptomycin (Thermo Fisher) and kept at 37° C. in a humidified atmosphere of 5% CO2 in air. Cells were reinstated from frozen stocks that were laid down within 30 passages from the original cells purchased. 40000 cells per well were seeded into a 96-well plate and incubated overnight. Cells were treated with a 10-point dilution series. The final compound concentration is from […]. After 2 hrs compound treatment, cells were lysed, and the pERK1/2(THR202/TYR204) level in the cell lysates was detected by HTRF kit (Cisbio). In brief, a total of 16 μL of cell lysate from each well of a 96-well plate was transferred to a 384-well white assay plate. Lysate from each well was incubated with 2 μL of Eu3+− cryptate (donor) labeled anti-phospho-ERK1/2 and 2 μL of D2 (acceptor) labeled anti-phospho-ERK1/2 antibodies (Cisbio) overnight in dark at room temperature. When donor and acceptor are in close proximity, excitation of the donor with laser triggers a Fluorescence Resonance Energy Transfer (FRET) towards the acceptor, which in turn fluoresces at 655 nm wavelength. FRET signals were measured using a PHERAstar FSX reader (BMG Labtech). IC50 determination was performed by fitting the curve of percent inhibition versus the log of the inhibitor concentration using Dotmatics.

[2] = target: T1, GST-tagged GDP-loaded KRAS G12V (amino acids 1-169) (Homo sapiens, UniProt P01116, G12V); assay: KRAS G12V probe displacement assay (TR-FRET); type: binding; details: displacement of biotinylated probe 2 from GDP-loaded KRAS G12V
T1 construct: GST-tagged GDP-loaded KRAS G12V (amino acids 1-169); made in house; host or cells: E. coli
Outline: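 GST-tagged GDP-loaded KRAS 1-169 (WT 3 nM; G12V 2 nM final) preincubated 1 h at 24 °C with serially diluted compound in HEPES pH 7.5 buffer, then biotinylated probe added (probe 1 60 nM for WT; probe 2 2.5 nM for G12V), 1 h. Anti-GST-Tb/streptavidin-XL665 TR-FRET 665/620 ratio; IC50 by four-parameter fit.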

T1 sequence (P01116 1-169 isoform P01116-2 G12V): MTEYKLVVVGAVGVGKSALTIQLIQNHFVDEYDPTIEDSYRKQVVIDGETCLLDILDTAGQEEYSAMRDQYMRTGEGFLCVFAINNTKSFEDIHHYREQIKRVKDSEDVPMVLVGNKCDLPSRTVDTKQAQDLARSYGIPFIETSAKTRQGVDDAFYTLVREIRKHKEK

Structure (SMILES): Nc1nc2c(-c3c(C(F)(F)F)cc4c(N[C@H]5[C@@H]6COC[C@@H]65)nc(OC[C@@]56CCCN5C[C@H](F)C6)nc4c3F)ccc(F)c2s1 [Example 7, 4-(4-(((1R,5S,6r)-3-oxabicyclo [3.1.0]hexan-6-yl)amino)-8-fluoro-2-(((2R,7aS)-2-fluorotetrahydro-1H-pyrrolizin-7a(5H)-yl)methoxy)-6-(trifluoromethyl)quinazolin-7-yl)-7-fluorobenzo[d]thiazol-2-amine]
- IC50 [1]: 220 nM
- IC50 [2]: 4.2 nM

Structure (SMILES): Nc1nc2c(-c3c(C(F)(F)F)cc4c(N5CCC5)nc(OC[C@@]56CCCN5C[C@H](F)C6)nc4c3F)ccc(F)c2s1 [Example 33, 4-(4-(azetidin-1-yl)-8-fluoro-2-(((2R,7aS)-2-fluorotetrahydro-1H-pyrrolizin-7a(5H)-yl)methoxy)-6-(trifluoromethyl)quinazolin-7-yl)-7-fluorobenzo[d]thiazol-2-amine]
- IC50 [1]: 333 nM
- IC50 [2]: 2.6 nM

Structure (SMILES): Nc1nc2c(-c3c(C(F)(F)F)cc4c(N5CC(F)C5)nc(OC[C@@]56CCCN5C[C@H](F)C6)nc4c3F)ccc(F)c2s1 [Example 37, 7-fluoro-4-(8-fluoro-4-(3-fluoroazetidin-1-yl)-2-(((2R,7aS)-2-fluorotetrahydro-1H-pyrrolizin-7a(5H)-yl)methoxy)-6-(trifluoromethyl)quinazolin-7-yl)benzo[d]thiazol-2-amine]
- IC50 [1]: 449 nM
- IC50 [2]: 6 nM

Structure (SMILES): N#CC1CN(c2nc(OC[C@@]34CCCN3C[C@H](F)C4)nc3c(F)c(-c4ccc(F)c5sc(N)nc45)c(C(F)(F)F)cc23)C1 [Example 39, 1-(7-(2-amino-7-fluorobenzo[d]thiazol-4-yl)-8-fluoro-2-(((2R,7aS)-2-fluorotetrahydro-1H-pyrrolizin-7a(5H)-yl)methoxy)-6-(trifluoromethyl)quinazolin-4-yl)azetidine-3-carbonitrile]
- IC50 [1]: 410 nM
- IC50 [2]: 5.5 nM

Structure (SMILES): CC1C(C#N)CN1c1nc(OC[C@@]23CCCN2C[C@H](F)C3)nc2c(F)c(-c3ccc(F)c4sc(N)nc34)c(C(F)(F)F)cc12 (stereo partly drawn) [Example 43, 1-(7-(2-amino-7-fluorobenzo[d]thiazol-4-yl)-8-fluoro-2-(((2R,7aS)-2-fluorotetrahydro-1H-pyrrolizin-7a(5H)-yl)methoxy)-6-(trifluoromethyl)quinazolin-4-yl)-2-methylazetidine-3-carbonitrile]
- IC50 [1]: 356 nM
- IC50 [2]: 7.1 nM

Structure (SMILES): N#CC1CCN(c2nc(OC[C@@]34CCCN3C[C@H](F)C4)nc3c(F)c(-c4ccc(F)c5sc(N)nc45)c(C(F)(F)F)cc23)C1 (stereo partly drawn) [Example 60, 1-(7-(2-amino-7-fluorobenzo[d]thiazol-4-yl)-8-fluoro-2-(((2R,7aS)-2-fluorotetrahydro-1H-pyrrolizin-7a(5H)-yl)methoxy)-6-(trifluoromethyl)quinazolin-4-yl)pyrrolidine-3-carbonitrile]
- IC50 [1]: 413 nM
- IC50 [2]: 2.1 nM

Structure (SMILES): N#CC1CCCN(c2nc(OC[C@@]34CCCN3C[C@H](F)C4)nc3c(F)c(-c4ccc(F)c5sc(N)nc45)c(C(F)(F)F)cc23)CC1 (stereo partly drawn) [Example 82, 1-(7-(2-amino-7-fluorobenzo[d]thiazol-4-yl)-8-fluoro-2-(((2R,7aS)-2-fluorotetrahydro-1H-pyrrolizin-7a(5H)-yl)methoxy)-6-(trifluoromethyl)quinazolin-4-yl)azepane-4-carbonitrile]
- IC50 [1]: 199 nM
- IC50 [2]: 0.74 nM

Structure (SMILES): CN1CC2(CCN(c3nc(OC[C@@]45CCCN4C[C@H](F)C5)nc4c(F)c(-c5ccc(F)c6sc(N)nc56)c(C(F)(F)F)cc34)CC2)OC1=O [Example 87, 8-(7-(2-amino-7-fluorobenzo[d]thiazol-4-yl)-8-fluoro-2-(((2R,7aS)-2-fluorotetrahydro-1H-pyrrolizin-7a(5H)-yl)methoxy)-6-(trifluoromethyl)quinazolin-4-yl)-3-methyl-1-oxa-3,8-diazaspiro[4.5]decan-2-one]
- IC50 [1]: 108 nM
- IC50 [2]: 0.77 nM

Structure (SMILES): C[C@@H]1C[C@@H](C#N)CCN1c1nc(OC[C@@]23CCCN2C[C@H](F)C3)nc2c(F)c(-c3ccc(F)c4sc(N)c(C#N)c34)c(Cl)cc12 [Example 101, (2R,4S)-1-(7-(2-amino-3-cyano-7-fluorobenzo[b]thiophen-4-yl)-6-chloro-8-fluoro-2-(((2R,7aS)-2-fluorotetrahydro-1H-pyrrolizin-7a(5H)-yl)methoxy)quinazolin-4-yl)-2-methylpiperidine-4-carbonitrile]
- IC50 [1]: 11 nM
- IC50 [2]: 0.28 nM

Structure (SMILES): CCC1(O)CCCN(c2nc(OC[C@@]34CCCN3C[C@H](F)C4)nc3c(F)c(-c4cc(N)cc(Cl)c4C(F)(F)F)ncc23)C1 (stereo partly drawn) [Example 130, 1-(7-(5-amino-3-chloro-2-(trifluoromethyl)phenyl)-8-fluoro-2-(((2R,7aS)-2-fluorotetrahydro-1H-pyrrolizin-7a(5H)-yl)methoxy)pyrido[4,3-d]pyrimidin-4-yl)-3-ethylpiperidin-3-ol]
- IC50 [2]: 32 nM

Structure (SMILES): Nc1cc(Cl)c(C(F)(F)F)c(-c2ncc3c(N4CCC5CC5(O)C4)nc(OC[C@@]45CCCN4C[C@H](F)C5)nc3c2F)c1 (stereo partly drawn) [Example 131, 3-(7-(5-amino-3-chloro-2-(trifluoromethyl)phenyl)-8-fluoro-2-(((2R,7aS)-2-fluorotetrahydro-1H-pyrrolizin-7a(5H)-yl)methoxy)pyrido[4,3-d]pyrimidin-4-yl)-3-azabicyclo[4.1.0]heptan-1-ol]
- IC50 [2]: 23 nM
